Test results as given in the NIST ThermoML archive (doi:10.1007/s10765-013-1492-1).
Several values for one entry are separate records, joined by “and”; a condition that tells them apart may be missing. Identical values can stand only once.

Legend:
[1] = xn = mol fraction of the nth substance listed; details: 101 kPa, Liquid
[2] = 101 kPa, Liquid

O=[N+]([O-])c1ccccc1 [nitrobenzene] + O=Cc1ccccc1
[1], x2 = 0
Details | mass density [kg/m3] | speed of sound [m/s] | viscosity [mPa·s]
303.15 K | 1189.6 | 1407 | 1.618
308.15 K | 1189.4 | 1361 | 1.618
313.15 K | 1187.2 | 1326 | 1.61

O=Cc1ccccc1 [benzaldehyde]
[2]
Details | mass density | speed of sound | viscosity
303.15 K | 1031.7 kg/m3 and 1035.7 kg/m3 | 1452 m/s | 1.32 mPa·s
308.15 K | 1031.3 kg/m3 | 1428 m/s and 1428.8 m/s | 1.249 mPa·s and 1.249 mPa·s
313.15 K | 1028 kg/m3 | 1413 m/s | 1.242 mPa·s and 1.241 mPa·s

Clc1ccccc1 [chlorobenzene] + O=Cc1ccccc1
[1], x2 = 0
Details | mass density [kg/m3] | speed of sound [m/s] | viscosity [mPa·s]
303.15 K | 1086.6 | 1249 | 0.7147
308.15 K | 1085.1 | 1224 | 0.7469
313.15 K | 1081.1 | 1220 | 0.7383

O=Cc1ccccc1 [benzaldehyde] + O=[N+]([O-])c1ccccc1
[1]
Details | mass density, 303.15 K [kg/m3] | mass density, 308.15 K [kg/m3] | mass density, 313.15 K [kg/m3] | speed of sound, 303.15 K [m/s] | speed of sound, 308.15 K [m/s] | speed of sound, 313.15 K [m/s] | viscosity, 303.15 K [mPa·s] | viscosity, 308.15 K [mPa·s] | viscosity, 313.15 K [mPa·s]
x1 = 0.1018 | 1170.8 | 1170.6 | 1166.6 | 1409.5 | 1366.2 | 1332.4 | 1.556 | 1.546 | 1.524
x1 = 0.2032 | 1160.2 | 1159.9 | 1150.6 | 1412 | 1372 | 1340 | 1.534 | 1.504 | 1.472
x1 = 0.3043 | 1143 | 1142.6 | 1142.4 | 1414.6 | 1378 | 1348 | 1.495 | 1.456 | 1.45
x1 = 0.4049 | 1130.6 | 1129.8 | 1121.9 | 1417.5 | 1384 | 1356.2 | 1.455 | 1.429 | 1.402
x1 = 0.5051 | 1117.6 | 1117 | 1110.9 | 1420.6 | 1390.6 | 1364.8 | 1.427 | 1.411 | 1.383
x1 = 0.6049 | 1102.6 | 1101.8 | 1101.1 | 1424.5 | 1397.8 | 1374 | 1.405 | 1.389 | 1.371
x1 = 0.7042 | 1083.9 | 1082.7 | 1080.7 | 1428.3 | 1405 | 1383 | 1.359 | 1.354 | 1.343
x1 = 0.8032 | 1065.2 | 1065 | 1064.5 | 1432.5 | 1412.5 | 1392.3 | 1.333 | 1.316 | 1.307
x1 = 0.9018 | 1050.9 | 1048.8 | 1043.8 | 1437 | 1420 | 1401.7 | 1.295 | 1.282 | 1.267
x1 = 1 | 1035.7 | 1031.3 | 1028 | 1452 | 1428.8 | 1413 | 1.32 | 1.249 | 1.241

O=[N+]([O-])c1ccccc1 [nitrobenzene]
[2]
Details | mass density [kg/m3] | speed of sound [m/s] | viscosity [mPa·s]
303.15 K | 1189.6 | 1407 | 1.618
308.15 K | 1189.4 | 1361 | 1.618
313.15 K | 1187.2 | 1326 | 1.61

Clc1ccccc1 [chlorobenzene]
[2]
Details | mass density [kg/m3] | speed of sound [m/s] | viscosity [mPa·s]
303.15 K | 1086.6 | 1249 | 0.7147
308.15 K | 1085.1 | 1224 | 0.7469
313.15 K | 1081.1 | 1220 | 0.7383

O=Cc1ccccc1 [benzaldehyde] + Clc1ccccc1
[1]
Details | mass density, 303.15 K [kg/m3] | mass density, 308.15 K [kg/m3] | mass density, 313.15 K [kg/m3] | speed of sound, 303.15 K [m/s] | speed of sound, 308.15 K [m/s] | speed of sound, 313.15 K [m/s] | viscosity, 303.15 K [mPa·s] | viscosity, 308.15 K [mPa·s] | viscosity, 313.15 K [mPa·s]
x1 = 0.1006 | 1084.3 | 1082 | 1077.9 | 1265 | 1241 | 1235 | 0.7984 | 0.7805 | 0.7641
x1 = 0.2011 | 1081.4 | 1079.1 | 1075 | 1282 | 1258 | 1249 | 0.8332 | 0.8123 | 0.7949
x1 = 0.3015 | 1077.2 | 1075 | 1070.2 | 1299 | 1277 | 1267 | 0.8814 | 0.8532 | 0.8407
x1 = 0.4017 | 1071.9 | 1070.3 | 1065.2 | 1318 | 1296 | 1286 | 0.9297 | 0.905 | 0.8891
x1 = 0.5017 | 1066.5 | 1065.2 | 1059.9 | 1337 | 1316 | 1305 | 0.9803 | 0.9559 | 0.9425
x1 = 0.6017 | 1060.9 | 1059.8 | 1054.6 | 1356 | 1337 | 1325 | 1.029 | 1.009 | 0.9925
x1 = 0.7015 | 1055 | 1053.8 | 1049.1 | 1376 | 1358 | 1345 | 1.082 | 1.061 | 1.045
x1 = 0.8011 | 1048.5 | 1047.5 | 1043.3 | 1397 | 1380 | 1366 | 1.134 | 1.118 | 1.099
x1 = 0.9006 | 1041.6 | 1040.8 | 1036.9 | 1418 | 1403 | 1387 | 1.196 | 1.184 | 1.163
x1 = 1 | 1031.7 | 1031.3 | 1028 | 1452 | 1428 | 1413 | 1.32 | 1.249 | 1.242
